Patent US12628822B2, “Plant pathogen defence elicitors” (UNIVERSITÉ LIBRE DE BRUXELLES, priority 2020, dated 2026)

How the values were obtained:
[1] = system: callose deposition; assay: Callose staining in Arabidopsis leaves; format: in vivo, Arabidopsis thaliana; settings: 6 and 24 h after treatment; 100 μM AA9_COS, 100 μM cellobiose or 1 μM FLG22; 5-week old plants
Protocol: Callose deposits quantification was performed essentially as described by Zarattini et al. (The bile acid deoxycholate elicits defences in Arabidopsis and reduces bacterial infection. Mol Plant Pathol. 2017, vol. 18(4), 540-554). […] Leaves were examined by stereofluorescence microscopy with an Azio Zoom V.16 (Carl Zeiss Inc., Oberkochen, Germany) and callose spots were quantified using ImageJ software.
Among them, several genes were associated to callose deposition in the cell wall (FIG. 4).

[2] = system: oxidative burst; assay: Oxidative burst detection (DAB, NBT, luminol-based assays); format: in vivo, Arabidopsis thaliana
Protocol: Hydrogen peroxide was assayed in both in vitro-growth and in soil-growth Arabidopsis plants. In situ detection of H2O2 was performed following the protocol described by Daudi and O'Brien (Detection of Hydrogen Peroxide by DAB Staining in Arabidopsis Leaves. Bio Protoc. 2012, vol. 2(18), e263). Briefly, 5-week-old Col-O plants leaves were droplet-treated (40-50 μl drops per leaf) with indicated compounds. At 24 h after treatment four rosette leaves from five independent plants were gently vacuum-infiltrated (5 min) with 1 mg ml^−1 3,3′-diaminobenzidine (DAB) dissolved in 10 mM sodium phosphate buffer and 0.05% v/v Tween 80. The staining reaction was terminated 5 h after DAB infiltration, and leaves were fixed in ethanol:glycerol:acetic acid 3:1:1. Chlorophyll was removed by several washing steps with 70% v/v ethanol and pictures were token with a stereomicroscope (Discovery V8, Zeiss).
Elicitor-induced H2O2 was also detected by luminol-peroxidase-based assay as described by Albert et al. (Chemiluminescence Detection of the Oxidative Burst in Plant Leaf Pieces. Bio-protocol 2015, vol. 5(6), e1423). Briefly, twenty leaves from 10 independent 4-5-week-old Col-0 plants were cut and incubated in ddH2O overnight. Time course luminescence was evaluated using The SpectraMax iD3 Multi-Mode Microplate Reader (Molecular devices, San Jose, CA, USA) with an integration time per well=1000 ms. […]

With `OC[C@H]1O[C@@H](O[C@H]2[C@H](O)[C@@H](O)[C@H](O)O[C@@H]2CO)[C@H](O)[C@@H](O)[C@@H]1O` [Cellobiose, β-D-glucopyranosyl(1→4)D-glucopyranose] as the molecule, how does the callose accumulation [1] read?
Its callose accumulation is “no visible callose spots”.

What about the “short-term extracellular H2O2 production (luminol-based assay)” value ([2]; 14-day old plants) of the same molecule?
Its value is “no H2O2 production was detected”.

What about the “in situ production of H2O2 and O2− (DAB and NBT assays)” value ([2]; 24 h after treatments, 5-week old plants) of the same molecule?
Its value is “no measurable production”.
